The structures appear in SMILES notation.

In test [1] the target is T1, system Xc^− (Homo sapiens, UniProt Q9UPY5).
T1 sequence (Q9UPY5 1-501): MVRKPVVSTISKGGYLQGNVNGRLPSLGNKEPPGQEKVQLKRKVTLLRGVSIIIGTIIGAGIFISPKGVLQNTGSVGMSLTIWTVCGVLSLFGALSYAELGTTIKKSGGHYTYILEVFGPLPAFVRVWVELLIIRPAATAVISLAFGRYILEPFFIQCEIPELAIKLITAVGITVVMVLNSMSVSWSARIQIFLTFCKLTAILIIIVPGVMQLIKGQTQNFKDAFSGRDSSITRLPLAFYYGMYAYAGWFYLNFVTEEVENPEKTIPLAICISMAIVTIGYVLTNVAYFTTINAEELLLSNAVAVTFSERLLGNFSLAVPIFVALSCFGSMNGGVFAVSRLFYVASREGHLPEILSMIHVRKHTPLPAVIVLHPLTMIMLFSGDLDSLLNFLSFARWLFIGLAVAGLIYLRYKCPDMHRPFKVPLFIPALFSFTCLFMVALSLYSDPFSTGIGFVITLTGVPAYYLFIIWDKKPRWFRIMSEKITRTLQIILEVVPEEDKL
T1 sequence (P08195 1-529 partner): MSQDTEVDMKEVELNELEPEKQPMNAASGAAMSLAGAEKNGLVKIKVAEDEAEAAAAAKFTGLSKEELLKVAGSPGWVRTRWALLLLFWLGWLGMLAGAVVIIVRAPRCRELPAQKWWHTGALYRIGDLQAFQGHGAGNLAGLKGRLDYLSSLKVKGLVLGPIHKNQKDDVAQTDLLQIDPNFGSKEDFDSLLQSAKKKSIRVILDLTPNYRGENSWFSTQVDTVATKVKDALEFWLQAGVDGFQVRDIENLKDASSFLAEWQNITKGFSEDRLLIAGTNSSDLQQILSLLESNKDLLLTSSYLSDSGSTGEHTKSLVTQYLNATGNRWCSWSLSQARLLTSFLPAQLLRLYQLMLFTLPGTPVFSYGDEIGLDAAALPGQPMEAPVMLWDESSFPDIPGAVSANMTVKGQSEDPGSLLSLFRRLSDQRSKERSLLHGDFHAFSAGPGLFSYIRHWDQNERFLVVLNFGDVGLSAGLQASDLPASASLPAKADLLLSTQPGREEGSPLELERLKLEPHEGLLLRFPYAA
As to the kind of experiment: [^14C]L-Cystine uptake assay. The format is cell-based. The following applies: H4 cells, sodium-free HEPES buffer, 0.5 μM L-[14C]Cystine and 4.5 μM L-Cystine, 1 hour at 37° C.; read-out: pIC50 [^14C] L-Cystine uptake assay (converted). Also on record: endogenous in cells; host or cells: H4 cells. Put shortly:
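Compound effect is given as pIC50, taken between controls of 1% DMSO and 50 μM Erastin. Human H4 cells were pretreated 15 min with compound in sodium-free buffer, then took up 0.5 μM [14C]cystine with 4.5 μM cold cystine for 1 hour at 37° C, read by scintillation proximity counting.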

The target in test [2] is T1, system Xc^−. As to the kind of experiment: Cystine-induced glutamate release assay. The following applies: H4 cells, sodium-free HEPES buffer, 50 μM L-Cystine, 2 hours, Amplex Red glutamate readout; read-out: pIC50 Cystine-induced glutamate release assay (converted). Also on record: endogenous in cells; host or cells: H4 cells. The format is cell-based. The method, boiled down: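 IC50 (reported as pIC50) normalized to DMSO 1% and Erastin 50 μM controls, from Amplex Red fluorescence of glutamate exported into supernatant. H4 cells were washed into sodium-free buffer to exclude EAAT transport, then given compound with 50 μM L-cystine for 2 h in the incubator.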

Turning to `Cc1cc2c(c(F)n1)-c1cccnc1[C@@H](C)C(=O)N2CC(=O)Nc1ccc2c(c1)OC(F)(F)O2` [#238, N-(2,2-difluoro-1,3-benzodioxol-5-yl)-2-[(10R)-3-fluoro-5,10-dimethyl-9-oxo-4,8,12-triazatricyclo[9.4.0.0^2,7]pentadeca-1(15),2,4,6,11,13-hexaen-8-yl]acetamide], the IC50 at system Xc^− [1] and at system Xc^− [2] was 39.8 to 100 nM throughout.
As to `O=C(CN1C(=O)Cc2ccncc2-c2cnc(Cl)cc21)Nc1ccc(C(F)(F)F)cc1` [#11, 2-(5-chloro-9-oxo-4,8,14-triazatricyclo[9.4.0.0^2,7]pentadeca-1(11),2(7),3,5,12,14-hexaen-8-yl)-N-[4-(trifluoromethyl)phenyl]acetamide], the IC50 at system Xc^− [1] and at system Xc^− [2] was 100 to 501 nM in each case.
As to `COC1C(=O)N(CC(=O)Nc2ccc(C(F)(F)F)cc2)c2cc(C)nc(Cl)c2-c2ccccc21` (centres unmarked) [#107, 2-(1-chloro-7-methoxy-3-methyl-6-oxo-7H-pyrido[3,4-a][3]benzazepin-5-yl)-N-[4-(trifluoromethyl)phenyl]acetamide], the IC50 on system Xc^− [1] was less than 15.8 nM; on system Xc^− [2], 15.8 to 39.8 nM.
`Cc1cc2c(c(C)n1)-c1ccc(Cl)cc1CC(=O)N2CC(=O)Nc1ccc(C(F)(F)F)cc1` [#62, 2-(9-chloro-1,3-dimethyl-6-oxo-7H-pyrido[4,3-d][3]benzazepin-5-yl)-N-[4-(trifluoromethyl)phenyl]acetamide]: the results for the IC50 on system Xc^− [1] and at system Xc^− [2] were less than 15.8 nM and 15.8 to 39.8 nM, respectively.
Turning to `O=C(CN1C(=O)Cn2nccc2-c2cnc(Cl)cc21)Nc1ccc(C(F)(F)F)cc1` [#37, 2-(12-chloro-8-oxo-5,6,9,13-tetrazatricyclo[8.4.0.0^2,6]tetradeca-1(10),2,4,11,13-pentaen-9-yl)-N-[4-(trifluoromethyl)phenyl]acetamide], the IC50 at system Xc^− [1] and at system Xc^− [2] was 100 to 501 nM in each case.
As to `CC1C(=O)N(CC(=O)Nc2ccc(Cl)c(F)c2)c2cc(F)cc(F)c2-c2cncnc21` (single isomer, unassigned) [#372, N-(4-chloro-3-fluoro-phenyl)-2-[9,11-difluoro-5-methyl-6-oxo-5H-pyrimido[4,5-d][1]benzazepin-7-yl]acetamide], the IC50 at system Xc^− [1] was 15.8 to 39.8 nM; on system Xc^− [2], less than 15.8 nM.
`COc1cc2c(cn1)-c1cccnc1C(C)C(=O)N2CC(=O)Nc1ccc(Cl)c(F)c1` (single isomer, unassigned) [#320, N-(4-chloro-3-fluoro-phenyl)-2-[5-methoxy-10-methyl-9-oxo-4,8,12-triazatricyclo[9.4.0.0^2,7]pentadeca-1(15),2(7),3,5,11,13-hexaen-8-yl]acetamide]: the IC50 at system Xc^− [1] and on system Xc^− [2] was 15.8 to 39.8 nM each time.
`CC1C(=O)N(CC(=O)Nc2ccc(Cl)c(F)c2)c2cc(N3CC4(C3)CC4(F)F)nc(F)c2-c2cccnc21` (single isomer, unassigned) [#270, N-(4-chloro-3-fluoro-phenyl)-2-[5-(2,2-difluoro-5-azaspiro[2.3]hexan-5-yl)-3-fluoro-10-methyl-9-oxo-4,8,12-triazatricyclo[9.4.0.0^2,7]pentadeca-1(15),2,4,6,11,13-hexaen-8-yl]acetamide]: the IC50 on system Xc^− [1] and at system Xc^− [2] was 39.8 to 100 nM in each case.
For the compound `Cc1cc2c(n(C)c1=O)-c1ccnn1C(C)C(=O)N2CC(=O)Nc1ccc(Cl)c(F)c1` (centres unmarked) [#353, N-(4-chloro-3-fluoro-phenyl)-2-(7,12,14-trimethyl-8,13-dioxo-5,6,9,14-tetrazatricyclo[8.4.0.0^2,6]tetradeca-1(10),2,4,11-tetraen-9-yl)acetamide], the IC50 at system Xc^− [1] is 39.8 to 100 nM; at system Xc^− [2], 15.8 to 39.8 nM.
In the case of `CC1C(=O)N(CC(=O)Nc2ccc(C(F)F)cc2)c2cc(OC3CN(C)C3)nc(F)c2-c2cccnc21` (centres unmarked) [#378, N-[4-(difluoromethyl)phenyl]-2-[3-fluoro-10-methyl-5-(1-methylazetidin-3-yl)oxy-9-oxo-4,8,12-triazatricyclo[9.4.0.0^2,7]pentadeca-1(15),2,4,6,11,13-hexaen-8-yl]acetamide], the IC50 is 39.8 to 100 nM at system Xc^− [1] and 15.8 to 39.8 nM on system Xc^− [2].

The record behind these values is patent publication US20260217708A1, “FUSED BENZAZEPINE DERIVATIVES FOR USE IN THE TREATMENT OF CANCER AND EPILEPSY” (UCB BIOPHARMA SRL, priority 2023, published 2026).
